Assay: Determination of the log P values by HPLC on a reversed-phase column (C18)
Assay type: physicochemical
Details: for chromatographic logP: reversed-phase HPLC column (C18), pH 2.3, HPLC reversed-phase column (C18)
Experimental: The log P values given in the table were determined in accordance with EEC Directive 79/831 Annex V.A8 by HPLC (High Performance Liquid Chromatography) on a reversed-phase column (C18). Temperature: 43° C.
Mobile phases for the determination in the acidic range (pH 2.3): 0.1% aqueous phosphoric acid, acetonitrile; linear gradient from 10% acetonitrile to 90% acetonitrile
Calibration was carried out using unbranched alkan-2-ones (with 3 to 16 carbon atoms) whose log P values are known (determination of the log P values by the retention times using linear interpolation between two successive alkanones).

[1] = compounds of the formula (III), cis/trans isomer mixture, first value of the cell
[2] = compounds of the formula (III), cis/trans isomer mixture, second value of the cell
[3] = compounds of the formula (I-2-a), m.p. ° C./log P
[4] = HPLC reversed-phase column (C18), acidic range (pH 2.3), 43° C.

Row | log P [1] | log P [2] | log P [3] | SMILES | also measured
1 | 5.50 | 5.58 | – | CCOC(=O)C1(OC(=O)Cc2cc(-c3ccc(Cl)cc3)ccc2C)CCCC(COC)C1 (mixture of isomers) [III-2] | –
2 | 4.94 | 5.05 | – | CCOC(=O)C1(OC(=O)Cc2c(C)cc(Br)cc2C)CCCC(COC)C1 (mixture of isomers) [III-3] | –
3 | 4.82 | 4.93 | – | CCOC(=O)C1(OC(=O)Cc2c(C)cc(Cl)cc2C)CCCC(COC)C1 (mixture of isomers) [III-4] | –
4 | 4.85 | 4.93 | – | CCOC(=O)C1(OC(=O)Cc2cc(C)c(C)cc2C)CCCC(COC)C1 (mixture of isomers) [III-5] | –
5 | 4.85 | 4.94 | – | CCOC(=O)C1(OC(=O)Cc2c(C)cc(C)cc2C)CCCC(COC)C1 (mixture of isomers) [III-6] | –
6 | 5.52 | 5.62 | – | CCOC(=O)C1(OC(=O)Cc2c(CC)cc(Br)cc2CC)CCCC(COC)C1 (mixture of isomers) [III-7] | –
7 | 5.36 | 5.49 | – | CCOC(=O)C1(OC(=O)Cc2cc(-c3ccc(Cl)cc3)ccc2C)CCC(COC)CC1 (mixture of isomers) [III-8] | –
8 | 4.88 | 5.01 | – | CCOC(=O)C1(OC(=O)Cc2c(C)cc(Br)cc2C)CCC(COC)CC1 (mixture of isomers) [III-9] | –
9 | 4.76 | 4.90 | – | CCOC(=O)C1(OC(=O)Cc2c(C)cc(Cl)cc2C)CCC(COC)CC1 (mixture of isomers) [III-10] | –
10 | 4.74 | 4.85 | – | CCOC(=O)C1(OC(=O)Cc2cc(C)c(C)cc2C)CCC(COC)CC1 (mixture of isomers) [III-11] | –
11 | 4.76 | 4.88 | – | CCOC(=O)C1(OC(=O)Cc2c(C)cc(C)cc2C)CCC(COC)CC1 (mixture of isomers) [III-12] | –
12 | 5.52 | 5.65 | – | CCOC(=O)C1(OC(=O)Cc2c(CC)cc(Br)cc2CC)CCC(COC)CC1 (mixture of isomers) [III-13] | –
13 | 5.39 | 5.51 | – | CCOC(=O)C1(OC(=O)Cc2c(CC)cc(C)cc2CC)CCC(COC)CC1 (mixture of isomers) [III-14] | –
14 | 5.90 | 5.98 | – | CCOC(=O)C1(OC(=O)Cc2cc(C)c(-c3ccc(Cl)cc3)cc2C)CCC(COC)CC1 (mixture of isomers) [III-15] | –
15 | 5.52 | 5.67 | – | CCOC(=O)C1(OC(=O)Cc2cc(-c3ccc(Cl)cc3)ccc2Cl)CCC(COC)CC1 (mixture of isomers) [III-16] | –
16 | 5.86 | 5.96 | – | CCOC(=O)C1(OC(=O)Cc2c(C)ccc(-c3ccc(Cl)cc3)c2C)CCC(COC)CC1 (mixture of isomers) [III-17] | –
17 | 5.68 | 5.80 | – | CCOC(=O)C1(OC(=O)Cc2cc(-c3ccc(Cl)cc3)ccc2C)CCCC(CCOC)C1 (mixture of isomers) [III-18] | –
18 | 5.13 | 5.26 | – | CCOC(=O)C1(OC(=O)Cc2c(C)cc(Br)cc2C)CCCC(CCOC)C1 (mixture of isomers) [III-19] | –
19 | 5.00 | 5.11 | – | CCOC(=O)C1(OC(=O)Cc2c(C)cc(Cl)cc2C)CCCC(CCOC)C1 (mixture of isomers) [III-20] | –

Row | log P [1] | log P [2] | log P [3] | SMILES | also measured
20 | 4.94 | 5.05 | – | CCOC(=O)C1(OC(=O)Cc2cc(C)c(C)cc2C)CCCC(CCOC)C1 (mixture of isomers) [III-21] | –
21 | 4.94 | 5.05 | – | CCOC(=O)C1(OC(=O)Cc2c(C)cc(C)cc2C)CCCC(CCOC)C1 (mixture of isomers) [III-22] | –
22 | 5.69 | 5.81 | – | CCOC(=O)C1(OC(=O)Cc2c(CC)cc(Br)cc2CC)CCCC(CCOC)C1 (mixture of isomers) [III-23] | –
23 | 5.56 | 5.66 | – | CCOC(=O)C1(OC(=O)Cc2c(CC)cc(C)cc2CC)CCCC(CCOC)C1 (mixture of isomers) [III-24] | –
24 | 6.03 | 6.12 | – | CCOC(=O)C1(OC(=O)Cc2cc(C)c(-c3ccc(Cl)cc3)cc2C)CCCC(CCOC)C1 (mixture of isomers) [III-25] | –
25 | 5.67 | 5.82 | – | CCOC(=O)C1(OC(=O)Cc2cc(-c3ccc(Cl)cc3)ccc2Cl)CCCC(CCOC)C1 (mixture of isomers) [III-26] | –
26 | 6.02 | 6.09 | – | CCOC(=O)C1(OC(=O)Cc2c(C)ccc(-c3ccc(Cl)cc3)c2C)CCCC(CCOC)C1 (mixture of isomers) [III-27] | –
27 | 5.69 | 5.81 | – | CCOC(=O)C1(OC(=O)Cc2cc(-c3ccc(Cl)cc3)ccc2C)CCC(CCOC)CC1 (mixture of isomers) [III-28] | –
28 | 5.13 | 5.29 | – | CCOC(=O)C1(OC(=O)Cc2c(C)cc(Br)cc2C)CCC(CCOC)CC1 (mixture of isomers) [III-29] | –
29 | 5.00 | 5.15 | – | CCOC(=O)C1(OC(=O)Cc2c(C)cc(Cl)cc2C)CCC(CCOC)CC1 (mixture of isomers) [III-30] | –
30 | 5.00 | 5.09 | – | CCOC(=O)C1(OC(=O)Cc2cc(C)c(C)cc2C)CCC(CCOC)CC1 (mixture of isomers) [III-31] | –
31 | 5.75 | 5.90 | – | CCOC(=O)C1(OC(=O)Cc2c(CC)cc(Br)cc2CC)CCC(CCOC)CC1 (mixture of isomers) [III-32] | –
32 | 5.64 | 5.75 | – | CCOC(=O)C1(OC(=O)Cc2c(CC)cc(C)cc2CC)CCC(CCOC)CC1 (mixture of isomers) [III-33] | –
33 | 6.14 | 6.19 | – | CCOC(=O)C1(OC(=O)Cc2cc(C)c(-c3ccc(Cl)cc3)cc2C)CCC(CCOC)CC1 (mixture of isomers) [III-34] | –
34 | 5.70 | 5.85 | – | CCOC(=O)C1(OC(=O)Cc2cc(-c3ccc(Cl)cc3)ccc2Cl)CCC(CCOC)CC1 (mixture of isomers) [III-35] | –
35 | – | – | oil/2.78 | COCC1CCCC2(C1)OC(=O)C(c1cc(C)c(C)cc1C)=C2O (centres unmarked) [1-2-a-5] | –
36 | – | – | oil/3.38 | CCc1cc(Br)cc(CC)c1C1=C(O)C2(CCC(COC)CC2)OC1=O (centres unmarked) [Example I-2-a-13] | –
37 | – | – | oil/3.19 | CCc1cc(C)cc(CC)c1C1=C(O)C2(CCC(COC)CC2)OC1=O (centres unmarked) [Example I-2-a-14] | –
38 | – | – | oil/3.75 | COCCC1CCCC2(C1)OC(=O)C(c1cc(-c3ccc(Cl)cc3)ccc1C)=C2O (centres unmarked) [Example I-2-a-18] | –

Row | log P [1] | log P [2] | log P [3] | SMILES | also measured
39 | – | – | oil/3.13 | COCCC1CCCC2(C1)OC(=O)C(c1c(C)cc(Br)cc1C)=C2O (centres unmarked) [Example I-2-a-19] | –
40 | – | – | oil/3.03 | COCCC1CCCC2(C1)OC(=O)C(c1c(C)cc(Cl)cc1C)=C2O (centres unmarked) [Example I-2-a-20] | –
41 | – | – | oil/2.96 | COCCC1CCCC2(C1)OC(=O)C(c1cc(C)c(C)cc1C)=C2O (centres unmarked) [Example I-2-a-21] | –
42 | – | – | oil/2.94 | COCCC1CCCC2(C1)OC(=O)C(c1c(C)cc(C)cc1C)=C2O (centres unmarked) [Example I-2-a-22] | –
43 | – | – | oil/3.63 | CCc1cc(Br)cc(CC)c1C1=C(O)C2(CCCC(CCOC)C2)OC1=O (centres unmarked) [Example I-2-a-23] | –
44 | – | – | oil/3.44 | CCc1cc(C)cc(CC)c1C1=C(O)C2(CCCC(CCOC)C2)OC1=O (centres unmarked) [Example I-2-a-24] | –
45 | – | – | oil/4.03 | COCCC1CCCC2(C1)OC(=O)C(c1cc(C)c(-c3ccc(Cl)cc3)cc1C)=C2O (centres unmarked) [Example I-2-a-25] | –
46 | – | – | oil/3.68 | COCCC1CCCC2(C1)OC(=O)C(c1cc(-c3ccc(Cl)cc3)ccc1Cl)=C2O (centres unmarked) [Example I-2-a-26] | –
47 | – | – | oil/3.71 | COCCC1CCC2(CC1)OC(=O)C(c1cc(-c3ccc(Cl)cc3)ccc1C)=C2O (centres unmarked) [Example I-2-a-28] | –
48 | – | – | oil/3.10 | COCCC1CCC2(CC1)OC(=O)C(c1c(C)cc(Br)cc1C)=C2O (centres unmarked) [Example I-2-a-29] | –
49 | – | – | oil/3.00 | COCCC1CCC2(CC1)OC(=O)C(c1c(C)cc(Cl)cc1C)=C2O (centres unmarked) [Example I-2-a-30] | –
50 | – | – | oil/2.92 | COCCC1CCC2(CC1)OC(=O)C(c1cc(C)c(C)cc1C)=C2O (centres unmarked) [Example I-2-a-31] | –
51 | – | – | oil/3.59 | CCc1cc(Br)cc(CC)c1C1=C(O)C2(CCC(CCOC)CC2)OC1=O (centres unmarked) [Example I-2-a-32] | –
52 | – | – | oil/3.40 | CCc1cc(C)cc(CC)c1C1=C(O)C2(CCC(CCOC)CC2)OC1=O (centres unmarked) [Example I-2-a-33] | –
53 | – | – | oil/3.67 | COCCC1CCC2(CC1)OC(=O)C(c1cc(-c3ccc(Cl)cc3)ccc1Cl)=C2O (centres unmarked) [Example I-2-a-35] | –
54 | – | – | – | COCCC1CCC2(CC1)OC(=O)C(c1c(C)cc(C)cc1C)=C2OC(=O)C(C)C (centres unmarked) [Example I-2-b-1] | chromatographic logP (acidic range (pH 2.3), 43° C.): 4.79
55 | – | – | – | CCc1cc(C)cc(CC)c1C1=C(OC(=O)C(C)C)C2(CCC(CCOC)CC2)OC1=O (centres unmarked) [Example I-2-b-2] | chromatographic logP (acidic range (pH 2.3), 43° C.): 5.43
56 | – | – | – | CCOC(=O)OC1=C(c2cc(-c3ccc(Cl)cc3)ccc2C)C(=O)OC12CCC(COC)CC2 (centres unmarked) [Example I-2-c-2] | log P [4]: 4.95
57 | – | – | – | CCOC(=O)OC1=C(c2c(CC)cc(C)cc2CC)C(=O)OC12CCCC(CCOC)C2 (centres unmarked) [Example I-2-c-3] | log P [4]: 4.97

Row | SMILES | log P [1] | log P [2] | log P [3] | also measured
58 | COCC1CCCC2(C1)OC(=O)C(c1cc(-c3ccc(Cl)cc3)ccc1C)=C2O (centres unmarked) [Example I-2-a-2] | – | – | oil/3.58 | –
59 | CCc1cc(Br)cc(CC)c1C1=C(O)C2(CCCC(COC)C2)OC1=O (centres unmarked) [Example I-2-a-7] | – | – | oil/3.44 | –
60 | COCC1CCC2(CC1)OC(=O)C(c1cc(C)c(C)cc1C)=C2O (centres unmarked) [Example I-2-a-11] | – | – | oil/2.72 | –
61 | COCC1CCC2(CC1)OC(=O)C(c1c(C)cc(C)cc1C)=C2O (centres unmarked) [Example I-2-a-12] | – | – | oil/2.69 | –
